Values of other authors as cited in patent US8318201B2, “Method of stabilizing diarylvinylene compound” (Kyowa Hakko Kirin Co., Ltd., priority 2003, dated 2012).

Details: Bioorg. Med. Chem. Lett., vol. 7, p. 2349-2352 (1997); particularly unstable in a state of a solution

## CCn1c(=O)c2c(nc(/C=C/c3ccc(OC)c(OC)c3)n2C)n(CC)c1=O [Compound 1, (E)-8-(3,4-dimethoxystyryl)-1,3-diethyl-7-methyl-3,7-dihydro-1H-purine-2,6-dione]
  stability under irradiation of light (isomerization at the vinylene moiety): unstable particularly under irradiation of light
